Entries after “also recorded” stand apart in the source; their conditions may differ.
Legend:
[1] = system: WT cortical networks; test: MEA recordings of WT cortical cultures (spike rate, NAP/NIP duration from ASDR plot); assay type: cell-based, mice
Method: (§1) Primary dissociated cortical neurons were prepared from postnatal day 0 wild type and Shank3 KO mice (Peca et al., 2011) from littermates using standard protocols as described before (Ramamoorthi et al., 2011). For micro-electrode array recordings, dissociated neurons were plated onto substrate embedded electrodes pre-coated with polyethyleneimine (PEI) (Sigma-Aldrich, 0.1%) plus laminin (Life Technologies, 20 μg/ml) at a density of 3×10^3 cells/mm^2. For biochemical experiments, 3×10^5 cells were plated onto 1 well of the 24-well plate pre-coated with 20 μg/ml Poly-D-lysine (PDL, Sigma-Aldrich) and 4 μg/ml laminin (Life Technologies). The cultures were treated with AraC (Sigma-Aldrich, 1 μg/ml) at day 5 in vitro, and maintained up to 21 days after plating.
(§2) The electrical activity of cultured neurons was recorded using MEA2100-Systems (Multichannel Systems) with integrated amplifier. Each MEA dish (6-well MEA 200/30 iR-Ti-rcr, Multichannel Systems) contains six wells, with 9 microelectrodes (TiN, 30 μm diameter) arranged over a 3×3 square grid at 200 μm inter-electrode distance in each MEA well (FIG. 1C). Recordings started 10 minutes after the MEA plates were placed to the headstage, which was set to 35° C., and the culture was supplied with continuous perfusion of 5% carbon dioxide balanced air (Airgas) throughout recording. For all time points earlier than 21 days in vitro (DIV21), MEA recordings lasted 15 minutes. At DIV21, MEA recordings lasted 30 minutes. All MEA recordings were performed in culture medium without perfusion. The electric signals were collected at 10 kHz with MCRack (Multichannel Systems; Version 4.4.2) and analyzed offline.
(§3) The software MCRack was used for spike detection. Raw MEA data was first high-pass filtered at 200 Hz to remove the low-frequency local field potentials. […] The average detection threshold is around 16 μV. Spike sorting was not performed, thus multiunit activity may contribute to the spikes detected from one electrode. Timestamps of spikes were stored and used for further analysis.
(§4) ASDR plot was generated using the method modified from Wagenaar et al. (2008) by summing the number of spikes detected per 200 ms from all electrodes in each well and plotted in time series. Clampfit 10.2 (Molecular Devices) was used for ASDR waveform analysis. 5% of individual ASDR's maximum peak value was calculated and set as the detecting threshold for identifying ASDR spike. […] ASDR spikes with ISIs below 10 seconds were grouped together and defined as network active period (NAP).
(§5) All drugs were dissolved in DMSO to make stock solutions before applying to neurons in culture media for pharmacological studies. Picrotoxin (PTX, stock solution of 100 mM) for blocking GABAA receptors (Tocris), Clonazepam (stock solution of 30 mM) as GABAA receptor positive modulator (Sigma), NBQX (stock solution of 10 mM) for blocking AMPA receptor (Abcam), and CX546 (stock solution of 100 mM) as AMPA receptor potentiator (Tocris) were used in doses as described herein. The maximum concentration of DMSO in the culture media with drug application was 0.08% volume.

[2] = system: Shank3 KO cortical networks; test: MEA recordings of Shank3 KO cortical cultures (spike rate, NAP/NIP duration from ASDR plot); assay type: cell-based, mice; conditions: for NIP duration relative to WT level: 100 nM
Method: as §1, §2, §3, §4, §5

NS(=O)(=O)c1cccc2c1c([N+](=O)[O-])cc1nc(O)c(O)nc12 [NBQX]
NIP duration (enhanced by) ([1]; WT cortical networks DIV21, 1 μM): 560±85%

O=C(c1ccc2c(c1)OCCO2)N1CCCCC1 [CX546]
NIP duration (decreased to) ([1]; WT cortical networks DIV21, 30 μM): 58±11% | length of NAP ([1]; WT cortical networks DIV21, up to 30 μM): remained unchanged | mean spike rate (reduced-firing) in spontaneous network ([2]; Shank3 KO cultures DIV21, 30 μM): rescued the reduced-firing; also recorded: rescued the hypoactive network | mean spike rate (reduced-firing) in PTX-treated network ([2]; Shank3 KO cultures DIV21 with 50 μM PTX, 30 μM): effectively rescued the reduced-firing | duration of NAP ([2]; Shank3 KO networks DIV21): did not significantly change | duration of NIP ([2]; Shank3 KO networks DIV21, CX546 treatment): did not significantly change; also recorded: did not recover the network defect

Picrotoxin [PTX]
NIP duration compared to basal (reduced to) ([1]; WT cortical networks DIV21, 0.2 μM): 51±6% | NIP duration compared to basal (reduced to) ([1]; WT cortical networks DIV21, 0.5 μM): 44±6% | length of NAP ([1]; WT cortical networks DIV21, up to 0.5 μM): remained unchanged | mean spike rate ([1]; WT cultures DIV21, 50 μM, vs before treatment): significantly increased | mean spike rate ([2]; Shank3 KO cultures DIV21, 50 μM, vs before treatment): significantly increased

O=C1CN=C(c2ccccc2Cl)c2cc([N+](=O)[O-])ccc2N1 [CLP, Clonazepam]
NIP duration, dose dependence ([1]; WT cortical networks DIV21): dose dependently elongated | NIP duration, % longer ([1]; WT cortical networks DIV21, 100 nM, vs before treatment (basal)): 42±14% | NIP duration, dose dependence ([2]; Shank3 KO networks DIV21): dose dependently increased | NIP duration relative to WT level ([2]; Shank3 KO networks DIV21): normalized the shortened NIP in the Shank3 KO network to the level of WT; also recorded: normalized reduced NIP duration | NIP duration relative to WT level ([2]; Shank3 KO networks DIV21, listed as clonazepam): normalized

Reference: patent publication US20180149639A1, “MODELING NEURAL NETWORK DYSFUNCTION” (priority 2014, published 2018)
